Test results: patent US5434138A, “Gonadoliberin antagonists” (Hoechst Aktiengesellschaft, priority 1990, dated 1995)

Key:
[1] = test system: rat peritoneal mast cells; assay: Histamine release from peritoneal mast cells; type: cell-based, Wistar rats; details: 37° C., 30 minutes
Method: (§1) The peptides according to the invention have been tested for an atrophic effect on androgen-dependent organs and for an LH- and testosterone-lowering effect in serum and blood of male rats by continuous infusion (MINIPUMPS). The ovulation-inhibiting effect has been tested on female rats. The histamine release was checked using rat peritoneal mast cells.
Wistar rats were sacrificed by decapitation. 50 ml of a 0.9% strength NaCl solution were injected into the abdominal cavity and, after gentle massage, the abdominal wall was opened. The fluid, which contains the peritoneal cells, was aspirated using a Pasteur pipette and then centrifuged. The pelleted cells were resuspended and, after testing viability, diluted to 10^6 mast cells/ml.
150 μl of the dissolved gonadoliberin antagonist were added to a suspension of 10^5 mast cells in 150 μl of 0.9 % strength NaCl solution. After incubation at 37° C. for 30 minutes, the test tubes were centrifuged and the supernatant was removed. The LHRH antagonist Ac-D-Nal-D-p-Cl-D-Phe-D-Trp-Ser-Tyr-D-Ser(Rha)-Leu-Arg-Pro-Azagly-NH2, known to be a compound which induces histamine release by mast cells, was used as comparison substance. To determine the total histamine release (100%), the mast cell suspensions were rapidly boiled over a Bunsen burner.
A modified form of the methods described by Skofitsch et al. (J. Chromatography, 226, 53-59, 1981) and Siraganian and Hook (in Manual of Clinical Laboratory Immunology; eds: Rose et al. American Society of Microbiology, Washington D.C., pages 675, 1986) was used. Briefly summarized, 100 μl of a 1N NaOH and 100 μl of phthalaldehyde were added to 250 μl of supernatant and shaken vigorously. After a reaction time of 2 minutes, the fluorophore was converted into a more strongly fluorescent and stable product by acidification with 50 μl of 3N HCl. 10 μl of the supernatant were injected into the Chromspher C8 column (Chrompak FRW) of the HPLC system. This system comprises an SP 8100 chromatograph (Spectra Physics) and an SP 4270 integrator (Spectra Physics) and an LS-1 fluorescence detector (Perkin Elmer). The fluorescence was recorded at the wavelengths of 360 nm excitation and 450 nm emission.
Histamine release from peritoneal mast cells (μl/ml)

[2] = test system: immature female rats (LHRH-induced ovulation); assay: Rat antiovulation assay; type: in vivo; details: PMSG-pretreated immature female rats, phenobarbital; 800 ng LHRH s.c. 2 hours after antagonist
Method: as §1
The ovulation-inhibiting effect was tested in immature female rats which had been pretreated with PMSG (pregnant mare serum gonadotropin) in order to induce follicle maturation, Spontaneous ovulation was prevented by barbiturate (phenobarbital). A test dose of 800 ng of LHRH was injected subcutaneously 2 hours after the antagonists. The test substances were injected subcutaneously dissolved in 5% strength mannitol solution. The next day the Fallopian tubes were dissected out and stained with Patent Blue, and the tubular oocytes were counted under a microscope. The dose for an ovulation-inhibiting effect (ED 100) was determined for all the antagonists.

serum testosterone = assay: Testosterone-lowering effect on infusion by minipumps; type: in vivo, rat; details: male rats, subcutaneous infusion by minipumps for 7 days
Method: as §1
The testosterone-lowering effect was tested on male rats during subcutaneous infusion for 7 days. The biological effect on androgen-dependent organs and serum testosterone was recorded. The test compounds were administered by subcutaneous infusion using minipumps at a rate of […] for 7 days. The test compounds were dissolved in sterile 5 % strength mannitol solution. The minipumps were implanted subcutaneously in the region of the back under anesthesia and aseptic conditions.
Serum testosterone was extracted with diethyl ether and determined by a specific RIA.
Testosterone-lowering effect on infusion by minipumps

histamine secretion = details: A. Phillips et al., Life Sci. 41 (1987); cited from earlier work

Row | Substance | Histamine release, percentage relative to total histamine release on boiling ([1]; 0.01 (μl/ml) antagonist) | Histamine release, percentage relative to total histamine release on boiling ([1]; 0.1 (μl/ml) antagonist) | Histamine release, percentage relative to total histamine release on boiling ([1]; 1 (μl/ml) antagonist) | Histamine release, percentage relative to total histamine release on boiling ([1]; 10 (μl/ml) antagonist) | Histamine release, percentage relative to total histamine release on boiling ([1]; 100 (μl/ml) antagonist) | Ovulation-inhibiting dose (ED 100) [2] | Testosterone-lowering effect on infusion by minipumps: Dose per day (serum testosterone) | histamine secretion (histamine secretion)
1 | Ac-D-Nal-D-p-Cl-D-Phe-D-Trp-Ser-Tyr-D-Ser(Rha)-Leu-Arg-Pro-Azagly-NH2 [Comparison substance, reference compound] | 2.6% | 2.1% | 15.3% | 92.4% | 107.6% |  |  | 
2 | Ac-D-Nal-D-p-Cl-Phe-D-Pal-Ser-Tyr-D-Ser(Rha)-Leu-Ser(Fuc)-Pro-Azagly-NH2 [Example 4] |  |  |  |  |  | 64 ng per rat s.c. | 60 μg/24 h/rat | 
3 | Nal-Glu |  |  |  |  |  |  |  | greatly reduced
4 | Ac-D-NaI-D-p-Cl-Phe-D-Trp-Ser-Tyr-D-Ser(Rha)-Leu-Ser(Rha)-pro-Azagly-NH2 [Example 1] | 0.33% | 2.82% | -2.16% | -5.37% | -8.61% | 120 ng per rat s.c. | 120 μg/24 h/rat | 
5 | Ac-D-Nal-D-p-Cl-Phe-D-Pal-Ser-Tyr-D-Ser(Rha)-Leu-Ser (Rha)-Pro-Azagly-NH2 [Example 2] | 2.5% | 4.6% | 3.7% | 0.9% | 0.0% | 256 ng per rat s.c. | 120 μg/24 h/rat | 
6 | Ac-D-Nal-D-p-Cl-Phe-D-Trp-Ser-Tyr-D-Ser(Rha)-Leu-Ser(Xyl)-Pro-Azagly-NH2 [Example 3] |  |  |  |  |  | 512 ng per rat s.c. | 120 μg/24 h/rat | 
7 | Ac-D-Nal-D-p-Cl-Phe-D-Pal-Ser-Tyr-D-Ser(Rha)-Leu-Ser(Rha)-Pro-D-Ala-NH2 [Example 5] | 1.9% | 2.4% | 0.9% | 0.3% | 3.8% | 64 ng per rat s.c. | 60 μg/24 h/rat | 
